The numbers were not newly measured in patent US20140234397A1 (priority 2013, published 2014), which cites them from elsewhere.

Read-outs that look alike come from different tables or passages of the source.

For data set [1] the following is noted: rat; for removal of toxin: radio-tagged metal (CO60) removed from the liver.
The conditions of data set [2]: humans.

As for `N[C@@H](CCC(=O)N[C@@H](CS)C(=O)NCC(=O)O)C(=O)O` [Plain glutathione, glutathione], in data set [1] (radio-tagged metal (CO60) in the liver), the toxin remaining is 100%. Further, the results for the removal of toxin in data set [1] and in data set [1] (listed as Intravenous glutathione) were 0% and 64%, respectively. The “absorption after oral ingestion” value in data set [2] is recorded as “not absorbed”.
